The target in the test is human KDR protein in HEK-293 cells (Homo sapiens (Human), UniProt P35968). The test can be described thus: KDR Cell Assay (phospho-KDR in HEK-293 cells expressing inducible KDR). Format: cell-based. As to conditions: pKDR Cell HEK 10% FBS IC50, HEK-293 cells expressing inducible KDR, VEGF stimulated. In short, it runs like this:
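HEK-293 cells with inducible human KDR were treated with compound for 1 h in DMEM (0.25% DMSO final), then lysed. Phospho-KDR was quantified by Meso Scale immunoassay, expressed as percent of control, and IC50 taken where a 4-parameter logistic fit crossed 50 POC.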

The structures appear in SMILES notation. pIC50: −log10 of the molar value. “And” between values parts separate entries of the source, which are not always exact repeats. Equal entries are not always repeated. Structures can show the parent of a compound that is named as a salt.

28 compounds from US10023570B2 (Array BioPharma, Inc., priority 2015, dated 2018) can be followed below.

Chain of human KDR protein in HEK-293 cells (P35968 20-1356): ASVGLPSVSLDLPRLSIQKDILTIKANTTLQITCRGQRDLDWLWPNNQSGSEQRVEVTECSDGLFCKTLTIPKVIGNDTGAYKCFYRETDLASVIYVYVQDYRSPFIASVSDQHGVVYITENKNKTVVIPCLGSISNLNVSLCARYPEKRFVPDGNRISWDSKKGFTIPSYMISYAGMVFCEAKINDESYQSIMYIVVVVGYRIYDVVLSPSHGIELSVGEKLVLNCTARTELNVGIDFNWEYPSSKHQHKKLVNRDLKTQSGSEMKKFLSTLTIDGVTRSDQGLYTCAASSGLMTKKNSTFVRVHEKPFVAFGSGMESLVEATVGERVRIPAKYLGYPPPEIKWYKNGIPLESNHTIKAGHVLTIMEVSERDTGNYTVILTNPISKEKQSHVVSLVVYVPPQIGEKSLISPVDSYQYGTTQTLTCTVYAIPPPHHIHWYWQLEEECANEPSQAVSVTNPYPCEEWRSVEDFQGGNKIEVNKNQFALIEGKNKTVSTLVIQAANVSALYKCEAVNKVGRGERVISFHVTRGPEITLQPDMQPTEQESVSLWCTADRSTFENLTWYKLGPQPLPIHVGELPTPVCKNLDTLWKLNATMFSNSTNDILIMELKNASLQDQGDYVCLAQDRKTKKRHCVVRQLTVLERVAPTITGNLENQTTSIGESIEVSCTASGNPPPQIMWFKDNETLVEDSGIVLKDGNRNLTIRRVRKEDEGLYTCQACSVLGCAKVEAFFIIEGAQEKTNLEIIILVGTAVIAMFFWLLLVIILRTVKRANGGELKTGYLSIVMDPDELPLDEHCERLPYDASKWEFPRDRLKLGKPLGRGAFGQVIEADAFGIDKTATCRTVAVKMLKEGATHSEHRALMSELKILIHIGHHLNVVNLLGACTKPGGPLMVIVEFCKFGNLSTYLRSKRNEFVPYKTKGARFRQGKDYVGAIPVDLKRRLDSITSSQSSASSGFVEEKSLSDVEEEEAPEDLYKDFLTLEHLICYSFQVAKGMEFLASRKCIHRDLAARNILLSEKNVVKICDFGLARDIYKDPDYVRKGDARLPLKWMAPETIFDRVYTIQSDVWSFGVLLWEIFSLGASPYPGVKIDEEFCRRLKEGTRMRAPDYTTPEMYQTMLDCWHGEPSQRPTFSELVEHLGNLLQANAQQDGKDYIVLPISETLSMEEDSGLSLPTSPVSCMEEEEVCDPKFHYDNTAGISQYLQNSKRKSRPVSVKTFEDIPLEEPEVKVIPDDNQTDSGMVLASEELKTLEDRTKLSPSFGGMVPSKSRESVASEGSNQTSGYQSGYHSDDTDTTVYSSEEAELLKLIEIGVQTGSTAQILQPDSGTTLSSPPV

Regarding `C[C@H](c1ccccc1)N1CCN(c2ccc(-c3cc(-c4cnn(C)c4)cn4ncc(C#N)c34)cn2)CC1` [Example 421, (R)-6-(1-methyl-1H-pyrazol-4-yl)-4-(6-(4-(1-phenylethyl)piperazin-1-yl)pyridin-3-yl)pyrazolo[1,5-a]pyridine-3-carbonitrile dihydrochloride], the pIC50 is 5.79.
In the case of `COC1CCN(C(=O)N2CCN(c3ccc(-c4cc(-c5cnn(C)c5)cn5ncc(C#N)c45)cn3)CC2)CC1` [Example 376, 4-(6-(4-(4-methoxypiperidine-1-carbonyl)piperazin-1-yl)pyridin-3-yl)-6-(1-methyl-1H-pyrazol-4-yl)pyrazolo[1,5-a]pyridine-3-carbonitrile], the pIC50 was 5.74.
The same measure, in the same setting: the same measure for `Cn1cc(-c2cc(-c3ccc(N4CCC5(CCN(C(=O)OC(C)(C)C)CC5)CC4)nc3)c3c(C#N)cnn3c2)cn1` [Example 511, tert-butyl 9-(5-(3-cyano-6-(1-methyl-1H-pyrazol-4-yl)pyrazolo[1,5-a]pyridin-4-yl)pyridin-2-yl)-3,9-diazaspiro[5.5]undecane-3-carboxylate]: 5.98.
Still for that read-out and setting: the same measure for `CCCN1CCN(c2ccc(-c3cc(-c4cnn(C)c4)cn4ncc(C#N)c34)cn2)CC1` [Example 408, 6-(1-methyl-1H-pyrazol-4-yl)-4-(6-(4-propylpiperazin-1-yl)pyridin-3-yl)pyrazolo[1,5-a]pyridine-3-carbonitrile]: 5.89; for `Cn1cc(-c2cc(-c3ccc(N4CCC(Cc5ccc(Cl)cc5)CC4)nc3)c3c(C#N)cnn3c2)cn1` [Example 536, 4-(6-(4-(4-chlorobenzyl)piperidin-1-yl)pyridin-3-yl)-6-(1-methyl-1H-pyrazol-4-yl)pyrazolo[1,5-a]pyridine-3-carbonitrile]: 6.10 and 6.18.
`Cn1cc(-c2cc(-c3ccc(N4CCN(C(=O)CN5CCOCC5)CC4)nc3)c3c(C#N)cnn3c2)cn1` [Example 362, 6-(1-methyl-1H-pyrazol-4-yl)-4-(6-(4-(2-morpholinoacetyl)piperazin-1-yl)pyridin-3-yl)pyrazolo[1,5-a]pyridine-3-carbonitrile bis(2,2,2-trifluoroacetate)] showed a pIC50 (10% FBS) of 5.73.
In the case of `C[C@@H]([C@@H](O)c1ccccc1)N1CCN(c2ccc(-c3cc(-c4cnn(C)c4)cn4ncc(C#N)c34)cn2)CC1` [Example 149, 4-(6-(4-((1S,2S)-1-hydroxy-1-phenylpropan-2-yl)piperazin-1-yl)pyridin-3-yl)-6-(1-methyl-1H-pyrazol-4-yl)pyrazolo[1,5-a]pyridine-3-carbonitrile], the pIC50 (10% FBS) was 6.25.
With `Cn1cc(-c2cc(-c3ccc(N4CCN(Cc5cccnc5)CC4)nc3)c3c(C#N)cnn3c2)cn1` [Example 471, 6-(1-methyl-1H-pyrazol-4-yl)-4-(6-(4-(pyridin-3-ylmethyl)piperazin-1-yl)pyridine-3-yl)pyrazolo[1,5-a]pyridine-3-carbonitrile], the pIC50 is 5.80.
On the same count and under the same terms, under `Cn1cc(-c2cc(-c3ccc(N4CCC5(CCCNC5)C4)nc3)c3c(C#N)cnn3c2)cn1` (stereo not shown) [Example 546, 4-(6-(2,7-diazaspiro[4.5]decan-2-yl)pyridin-3-yl)-6-(1-methyl-1H-pyrazol-4-yl)pyrazolo[1,5-a]pyridine-3-carbonitrile dihydrochloride] stands 6.09.
On the same count and under the same terms, under `CO[C@H]1CCN(C(=O)N2CCN(c3ccc(-c4cc(-c5cnn(C)c5)cn5ncc(Cl)c45)cn3)CC2)C1` [Example 645, (S)-(4-(5-(3-chloro-6-(1-methyl-1H-pyrazol-4-yl)pyrazolo[1,5-a]pyridin-4-yl)pyridin-2-yl)piperazin-1-yl)(3-methoxypyrrolidin-1-yl)methanone] stands 5.77.
Under “10% FBS”, `Cn1cc(-c2cc(-c3ccc(N4CCN(C(=O)NCc5ccccc5)CC4)nc3)c3c(C#N)cnn3c2)cn1` [Example 129, N-benzyl-4-(5-(3-cyano-6-(1-methyl-1H-pyrazol-4-yl)pyrazolo[1,5-a]pyridin-4-yl)pyridin-2-yl)piperazine-1-carboxamide] showed a pIC50 of 7.03.
The same measure, in the same setting: under `Cn1cc(-c2cc(-c3ccc(N4CCN(C(=O)CO)CC4)cc3)c3c(C#N)cnn3c2)cn1` [Example 293, 4-(4-(4-(2-hydroxyacetyl)piperazin-1-yl)phenyl)-6-(1-methyl-1H-pyrazol-4-yl)pyrazolo[1,5-a]pyridine-3-carbonitrile hydrochloride] stands 6.27.
`Cn1cc(-c2cc(-c3ccc(N4CCN(Cc5cncc(Cl)c5)CC4)nc3)c3c(C#N)cnn3c2)cn1` [Example 430, 4-(6-(4-((5-chloropyridin-3-yl)methyl)piperazin-1-yl)pyridin-3-yl)-6-(1-methyl-1H-pyrazol-4-yl)pyrazolo[1,5-a]pyridine-3-carbonitrile] had a pIC50 of 6.10.
Still for that read-out and setting: the same measure for `Cn1cc(-c2cc(-c3ccc(C4CN(Cc5ccccc5)C4)nc3)c3c(C#N)cnn3c2)cn1` [Example 580, 4-(6-(1-benzylazetidin-3-yl)pyridin-3-yl)-6-(1-methyl-1H-pyrazol-4-yl)pyrazolo[1,5-a]-pyridine-3-carbonitrile]: 5.91.
Compound `CN1CCN(C(=O)N2CCN(c3ccc(-c4cc(-c5cnn(C)c5)cn5ncc(C#N)c45)cn3)CC2)CC1` [Example 120, 6-(1-methyl-1H-pyrazol-4-yl)-4-(6-(4-(4-methylpiperazine-1-carbonyl)piperazin-1-yl)pyridin-3-yl)pyrazolo[1,5-a]pyridine-3-carbonitrile] gave a pIC50 (10% FBS) of 5.65.
The compound `CCN1CCN(c2ccc(-c3cc(-c4cnn(C)c4)cn4ncc(C#N)c34)cn2)CC1` [Example 409, 4-(6-(4-ethylpiperazin-1-yl)pyridin-3-yl)-6-(1-methyl-1H-pyrazol-4-yl)pyrazolo[1,5-a]pyridine-3-carbonitrile] had a pIC50 of 5.78.
Compound `Cn1cc(-c2cc(-c3ccc(N4CCC5(CC4)CN(C(=O)C4CCC4)C5)nc3)c3c(C#N)cnn3c2)cn1` [Example 493, 4-(6-(2-(cyclobutanecarbonyl)-2,7-diazaspiro[3.5]nonan-7-yl)pyridin-3-yl)-6-(1-methyl-1H-pyrazol-4-yl)pyrazolo[1,5-a]pyridine-3-carbonitrile] showed a pIC50 of 6.03.
`Cn1cc(-c2cc(-c3ccc(N4CCN(C(=O)C5(c6ccccc6)CCCC5)CC4)nc3)c3c(C#N)cnn3c2)cn1` [Example 24, 6-(1-methyl-1H-pyrazol-4-yl)-4-(6-(4-(1-phenylcyclopentanecarbonyl)piperazin-1-yl)pyridin-3-yl)pyrazolo[1,5-a]pyridine-3-carbonitrile] had a pIC50 (10% FBS) of 6.02.
In turn, `Cn1ccc(-c2cc(-c3ccc(N4CCN(C(=O)CC(C)(C)C)CC4)cc3)c3c(C#N)cnn3c2)n1` [Example 309, 4-(4-(4-(3,3-dimethylbutanoyl)piperazin-1-yl)phenyl)-6-(1-methyl-1H-pyrazol-3-yl)pyrazolo[1,5-a]pyridine-3-carbonitrile] showed a pIC50 (10% FBS) of 5.32.
On the same count and under the same terms, the same measure for `CO[C@H]1CCN(C(=O)N2CCN(c3cnc(-c4cc(-c5cnn(C)c5)cn5ncc(C#N)c45)cn3)CC2)C1` [Example 289, (S)-4-(5-(4-(3-methoxypyrrolidine-1-carbonyl)piperazin-1-yl)pyrazin-2-yl)-6-(1-methyl-1H-pyrazol-4-yl)pyrazolo[1,5-a]pyridine-3-carbonitrile]: 6.64.
The compound `Cn1cc(-c2cc(-c3ccc(N4CCC5(CC4)CCN5C(=O)OC(C)(C)C)nc3)c3c(C#N)cnn3c2)cn1` [Example 515, tert-butyl 7-(5-(3-cyano-6-(1-methyl-1H-pyrazol-4-yl)pyrazolo[1,5-a]pyridin-4-yl)pyridin-2-yl)-1,7-diazaspiro[3.5]nonane-1-carboxylate] had a pIC50 of 6.55.
The same measure, in the same setting: the same measure for `Cn1cc(-c2cc(-c3ccc(N4CCC5(CCCN5C(=O)OC(C)(C)C)CC4)nc3)c3c(C#N)cnn3c2)cn1` [Example 513, tert-butyl 8-(5-(3-cyano-6-(1-methyl-1H-pyrazol-4-yl)pyrazolo[1,5-a]pyridin-4-yl)pyridin-2-yl)-1,8-diazaspiro[4.5]decane-1-carboxylate]: 5.53; for `CCCCN(C(=O)N1CCN(c2ccc(-c3cc(-c4cnn(C)c4)cn4ncc(C#N)c34)cn2)CC1)c1ccccc1` [Example 377, N-butyl-4-(5-(3-cyano-6-(1-methyl-1H-pyrazol-4-yl)pyrazolo[1,5-a]pyridin-4-yl)pyridine-2-yl)-N-phenylpiperazine-1-carboxamide]: 5.69.
The compound `Cn1cc(-c2cc(-c3ccc(N4CCN(Cc5ccccc5)CC4)nc3)c3c(C#N)cnn3c2)cn1` [Example 139, 4-(6-(4-benzylpiperazin-1-yl)pyridin-3-yl)-6-(1-methyl-1H-pyrazol-4-yl)pyrazolo[1,5-a]pyridine-3-carbonitrile] had a pIC50 (10% FBS) of 6.54.
In turn, `Cn1cc(-c2cc(-c3ccc(N4CCC(Cc5ccccc5)CC4)nc3)c3c(C#N)cnn3c2)cn1` [Example 535, 4-(6-(4-benzylpiperidin-l-yl)pyridin-3-yl)-6-(1-methyl-1H-pyrazol-4-yl)pyrazolo[1,5-a]pyridine-3-carbonitrile] showed a pIC50 of 6.43.
Same read-out and setting: the same measure for `Cn1cc(-c2cc(-c3ccc(N4CCN(Cc5ccc(F)cc5F)CC4)nc3)c3c(C#N)cnn3c2)cn1` [Example 426, 4-(6-(4-(2,4-difluorobenzyl)piperazin-1-yl)pyridin-3-yl)-6-(1-methyl-1H-pyrazol-4-yl)pyrazolo[1,5-a]pyridine-3-carbonitrile]: 5.90.
Take `CC(C)C(=O)N1CCC2(CCN(c3ccc(-c4cc(-c5cnn(C)c5)cn5ncc(C#N)c45)cn3)CC2)C1` [Example 207, 4-(6-(2-isobutyryl-2,8-diazaspiro[4.5]decan-8-yl)pyridin-3-yl)-6-(1-methyl-1H-pyrazol-4-yl)pyrazolo[1,5-a]pyridine-3-carbonitrile]: under “10% FBS”, the pIC50 was 5.71.
In the case of `COc1ccc(Cn2cc(-c3cc(-c4ccc(N5CCNCC5)nc4)c4c(C#N)cnn4c3)cn2)cc1` [Example 590, 6-(1-(4-methoxybenzyl)-1H-pyrazol-4-yl)-4-(6-(piperazin-1-yl)pyridin-3-yl)pyrazolo[1,5-a]pyridine-3-carbonitrile], the pIC50 is 5.83.

The pIC50 is the negative decadic logarithm of the IC50, by convention in mol/L. Lower therefore signals a high IC50.
